Read-outs that look alike come from different tables or passages of the source. Starred links: 1 amine or outer side, 2 acyl side, 3 side chain; linkers in the order of their positions; H or OH if unused. Positions of bridges follow the written chain, without caps; N, C: chain ends. Non-standard residues stand in square brackets, D forms with d. Residues, ends and D or L forms follow the SMILES beside them. Chains are numbered I, II in the order given. Hexamethylenediamine = C(CCCN[*:2])CCN[*:1]; Dip = N[C@H](C(=O)O)C(c1ccccc1)c1ccccc1; Chg = N[C@H](C(=O)O)C1CCCCC1; NMeA = CN[C@@H](C)C(=O)O
Tests used:
Assay type in all cases: cell-based
[1] = test system: 5′- and 3′-UTRs of human utrophin; assay: Screening assay: C2C12 stable reporter line, CMV-driven luciferase flanked by utrophin 5′ and 3′ UTRs; settings: for Upper-lower limits scoren: difference between upper and lower boundaries of the fitted dose-response screening curve; for Fold diff: fold difference between the EC50s of screening and counterscreening
Description: (§1) The construct for the HTS assay was generated by cloning the 5′- and 3′-UTRs of human utrophin into pGL4:50-hygro (Promega, Madison, Wis.) at the 5′ and 3′ of the luciferase coding sequence and has been described previously by Moorwood. […] For the counterscreening assay, the pGL4:50-hygro plasmid was used alone. Low passage C2C12 cells obtained from ATCC were transfected with either constructs, stably selected with 500 μg/mL hygromycin and subcloned using two rounds of serial dilutions to isolate single cell-derived colonies in a 96 wells plate format. […] The selected clones were cultured in presence of 100 μg/mL hygromycin B and were transferred to the HTS Facility at the University of Pennsylvania for implementation into a 384-wells format suitable for HTS.
(§2) The construct for generating the screening C2C12 cell line carrying the 5′ and 3′UTR of the human utrophin gene is described by Moorwood. […] Some compounds could increase light emission independently from the 5′ and 3′UTR regions, i.e., by activating the CMV promoter or increasing overall mRNA synthesis. Therefore, in order to distinguish such compounds, a counterscreening cell line stably expressing only the CMV-driven luciferase gene was generated (FIG. 1A). To determine optimal conditions for the implementation in a 384-wells high-throughput format, evaluated were DMSO tolerance, optimal cell density and incubation time (FIG. 5A-5C).
(§3) A first criterion for evaluating the performance of the selected hits was whether their activity was dose-dependent. After performing a dose-response analysis (5 nM to 10 μM) of each hit in the screening cell line, a clustering approach was applied (complete linkage with Euclidean distance measurement) to highlight similarities between compounds profiles. […] By modeling each dose-response trace with a 4-parameter logistic model applied to the Z— score values (FIG. 2B), the EC50 of each molecule was calculated.
(§4) Cells were allowed to attach overnight at 37° C., 5% CO2 in a humidified chamber. […] Compounds were added to a final concentration of 1 μM and 100 nM in 0.2% DMSO. Columns 1 and 23 were treated with 0.2% DMSO (negative control). Columns 2 and 24 were treated with 100 nM Panobinostat (positive control). Cells were incubated for 24 hours at 37° C., 5% CO2. […] Luminescence was measured on an EnVisionXcite Multilabel Plate Reader (PerkinElmer), using ultrasensitive luminescence measurement technology.

[2] = test system: utrophin protein in C2C12 cells; assay: Utrophin western blot in C2C12 cells (endogenous protein expression); settings: for utrophin protein levels in a separate assay (data not shown): hits with H2LPS equal to 0; for Utrophin protein levels, fold increase: 1 μM, 24 hours, normalized to tubulin, vs 0.1% DMSO control
Description: The 10 highest scoring hits were selected from this subset for performing in vitro validation. C2C12 cells were treated with 1 μM concentrations of the selected hits for 24 hours, followed by western blot evaluation of utrophin levels as an orthogonal assay for endogenous protein expression. […] Panobinostat, an FDA-approved non-selective HDAC inhibitor for cancer treatment, increased utrophin levels by 1.9-fold. […] AR-42 (S2244), another HDAC inhibitor with proven preclinical efficacy in contrasting cancer-induced cachexia, increased utrophin by 2.3-fold and had the second highest H2LPS. Consistent with the calculated HPS, the highest scoring hit, TSA (S1045), had also the highest magnitude of protein upregulation (3.9-fold) followed by PCI-24781 (S1090; 3.7-fold). Importantly, high H2LPS was generally correlated with confirmation in WB assays (FIG. 2E).
Total RNA was extracted from TA muscle samples with RNAeasy kit (Qiagen, USA) and reverse transcribed with random hexamers. qPCR was performed using Taqman probes for Utrophin (Assay ID Mm01168846_ml) and β-actin. Muscle tissue samples were lysed with TNEC buffer (50 mM Tris-HCl, pH 8.0; 150 mMNaCl; 1% NP40; 2 mM EDTA) buffer containing complete protease inhibitor cocktail (Roche, Basel, Switzerland). C2C12 cells were treated for 24 h with 1 μM concentrations of compounds from a fresh batch (3 wells for each compound), and cell samples were lysed with RIPA buffer with protease inhibitor cocktail. The experiment was repeated three independent times. 50-75 μg of total proteins from muscle tissues, or 4 μg of cell protein extracts, were resolved on a 3-8% Tris-Acetate gradient gel (NuPage; Invitrogen), transferred to PDVF or nitrocellulose membranes and mouse monoclonal anti-utrophin antibody MANCHO3 clone 8A4 (developed by Glenn E. Morris and obtained from the Developmental Studies Hybridoma Bank, Iowa) or a custom-made anti-UtrophinA rabbit polyclonal antibody (muscle tissue samples) generated and described previously by Chakkalakal et al., Nucleic Acids Res. 36, 826-838 (2008), which is incorporated herein by reference in its entirety.
TSA is a broad-spectrum HDAC inhibitor. […] To further validate in vitro the dose-dependent capacity of TSA to upregulate utrophin protein, C2C12 cells were treated for 24 hours with increasing concentrations of TSA (from 1 nM to 10 μM) (FIG. 3B). Consistent with the single-dose western blot validation experiments, utrophin protein levels were increased 4.3 times by 1 μM TSA. […] Some cytotoxicity was evident for TSA concentrations higher than 1 μM.

[3] = test system: CMV-driven luciferase gene; assay: Counterscreening assay: C2C12 line stably expressing only the CMV-driven luciferase gene; settings: for luciferase activity in the counterscreening assay: dose-response 5 nM to 10 μM, FIG. 6
Description: as §1, §2, §3, §4

[4] = C2C12, 4-parameter logistic fit of Z-scores, 24 h, no unit in table (0.013 = 13 nM), read-out: EC50 screen
[5] = C2C12, read-out: EC50 score (1 to 4)
[6] = 4-parameter logistic fit of Z-scores, 24 h, no unit in table (0.013 = 13 nM), read-out: EC50 screen

CCCCc1nc2cc(/C=C/C(=O)NO)ccc2n1CCN(CC)CC [Pracinostat]
EC50 [1, 4]: 558 nM
EC50 [1, 5]: 100 to 1000 nM
Upper-lower limits scoren [1]: 56.37
Fold diff [1]: 59.25

Cc1cc(O)c(-c2ccc([C@@H](C)CN)cc2)c2c1[nH]c(=O)c1sccc12.Cl [OTS514 hydrochloride]
utrophin protein levels in a separate assay (data not shown) [2]: failed to increase utrophin protein levels

Cc1cc(C)cc(C(=O)NOCCCCCC(=O)NO)c1 [LMK-235]
EC50 [1, 4]: 683 nM
EC50 [1, 5]: 100 to 1000 nM
Upper-lower limits scoren [1]: 43.40
Fold diff [1]: High

CCN(CC)Cc1ccc2cc(COC(=O)Nc3ccc(C(=O)NO)cc3)ccc2c1 [Givinostat]
EC50 [1, 4]: 269 nM
EC50 [1, 5]: 100 to 1000 nM
Upper-lower limits scoren [1]: 46.59
Fold diff [1]: 18.69
Utrophin protein levels, fold increase [2]: 2.2 fold

Panobinostat
EC50 [1, 6]: 13 nM
increase of signal activity over basal signal, primary screening ([1]; FIG. 8, Panobinostat-treated vs untreated stable C2C12 cells): 4-6 fold
signal (S), primary screening ([1]; FIG. 8, basal about 20,000 RLUs): about 100,000 RLUs
Upper-lower limits scoren [1]: 22.06
Fold diff [1]: 9.21
activity in library screen (threshold 22.07% NPAc) ([1]; screened at 0.1 μM and 1 μM, 24 h): active at both concentrations
increase over the basal signal, counterscreening ([3]; FIG. 8, Panobinostat-treated vs untreated): 100 fold
signal (S), counterscreening ([3]; FIG. 8, basal about 400 RLUs): 25-40,000 RLUs
luciferase activity in the counterscreening assay [3]: significant luciferase activity
Utrophin protein levels, fold increase [2]: 1.9 fold

O=C(/C=C/c1ccc(CN(CCO)CCc2c[nH]c3ccccc23)cc1)NO [LAQ824, Dacinostat]
utrophin protein levels in a separate assay (data not shown) [2]: failed to increase utrophin protein levels

CN(C)c1ccc(C(=O)NCCCCCCC(=O)NO)cc1 [M344]
EC50 [1, 6]: 3220 nM
Upper-lower limits scoren [1]: 74.15
Fold diff [1]: 2.54

CC(C)[C@H](C(=O)Nc1ccc(C(=O)NO)cc1)c1ccccc1 [AR-42]
EC50 [1, 4]: 369 nM
EC50 [1, 5]: 100 to 1000 nM
Upper-lower limits scoren [1]: 59.94
Fold diff [1]: 14.72
Utrophin protein levels, fold increase [2]: 2.3 fold

O=C(CCCCCN1C(=O)c2cccc3cccc(c23)C1=O)NO [Scriptaid]
EC50 [1, 4]: 2440 nM
EC50 [1, 5]: > 1000 nM
Upper-lower limits scoren [1]: 62.01
Fold diff [1]: High

CN[C@@H](C)C(=O)N[C@H](C(=O)N1CCC[C@H]1C(=O)N[C@H](C(=O)NCCCCCCNC(=O)[C@@H](NC(=O)[C@@H]1CCCN1C(=O)[C@@H](NC(=O)[C@H](C)NC)C1CCCCC1)C(c1ccccc1)c1ccccc1)C(c1ccccc1)c1ccccc1)C1CCCCC1 [BV-6] (I: H-[NMeA][Chg]P[Dip] / II: H-[NMeA][Chg]P[Dip]; linker I:C-II:C via Hexamethylenediamine)
EC50 [1, 6]: 99 nM
Upper-lower limits scoren [1]: 7.00
Fold diff [1]: High

Abexinostat [PCI-24781]
EC50 [1, 6]: 138 nM
Upper-lower limits scoren [1]: 44.18
Fold diff [1]: 33.72
Utrophin protein levels, fold increase [2]: 3.7 fold

C#Cc1cccc(Nc2ncnc3cc(OC)c(OCCCCCCC(=O)NO)cc23)c1 [CUDC-101]
EC50 [1, 4]: 1990 nM
EC50 [1, 5]: > 1000 nM
Upper-lower limits scoren [1]: 34.34
Fold diff [1]: High

Cn1cc(CNCC2CCN(c3ncc(C(=O)NO)cn3)CC2)c2ccccc21 [Quisinostat]
utrophin protein levels in a separate assay (data not shown) [2]: failed to increase utrophin protein levels

O=C1Nc2cc(Br)ccc2/C1=C1/Nc2ccccc2/C1=N\O [BIO]
Upper-lower limits scoren [1]: 12

O=C1Cc2c([nH]c3ccc(Br)cc23)-c2ccccc2N1 [Kenpaullone]
EC50 [1, 4]: 34 nM
EC50 [1, 5]: < 50 nM
Upper-lower limits scoren [1]: 12.92
Fold diff [1]: 6.97

CC(C)Oc1ccc2c(=O)c(-c3ccccc3)coc2c1 [ipriflavone]
EC50 [1, 5]: < 50 nM

O=C(/C=C/c1cccc(S(=O)(=O)Nc2ccccc2)c1)NO [Belinostat]
EC50 [1, 4]: 342 nM
EC50 [1, 5]: 100 to 1000 nM
Upper-lower limits scoren [1]: 43.41
Fold diff [1]: High

COc1ccc(-c2nc(N3CCOCC3)c3sc(CN(C)c4ncc(C(=O)NO)cn4)cc3n2)cn1 [CUDC-907]
EC50 [1, 5]: < 50 nM
luciferase activity in the counterscreening assay [3]: significant luciferase activity

CC(=O)O/N=C1/C(=C2/C(=O)Nc3cc(Br)ccc32)Nc2ccccc21 [BIO-acetoxime]
EC50 [1, 6]: 330 nM
Upper-lower limits scoren [1]: 13.04
Fold diff [1]: 0.65

From patent publication US20230076977A1, “UTROPHIN UPREGULATION COMPOUNDS FOR DUCHENNE MUSCULAR DYSTROPHY THERAPY” (THE TRUSTEES OF THE UNIVERSITY OF PENNSYLVANIA, priority 2020, published 2023)
